Assay results published in patent US10259847B2, “Beta-hairpin peptidomimetics” (POLYPHOR AG, priority 2014, dated 2019).
Read-outs that look alike come from different tables or passages of the source. *1 amine or outer side, *2 acyl side, *3 side chain or, on linkers, in order; H or OH if unused. Where a SMILES comes first, the peptide text is derived from it. Bridges are numbered along the chain shown (N, C = ends). [ ]: non-standard residue; d: D form. Tle = CC(C)(C)[C@H](N)C(=O)O; dDab = NCC[C@@H](N)C(=O)O; hCys = N[C@@H](CCS)C(=O)O; Orn = NCCC[C@H](N)C(=O)O; Dab = NCC[C@H](N)C(=O)O; dAze = O=C(O)[C@H]1CCN1; Dap = NC[C@H](N)C(=O)O; CO = O=C([*:1])[*:2]

What was measured:
Type in all cases: cell-based
[1] = system: human red blood cells (hRBC); test: Hemolysis of human red blood cells
Procedure: Stock solutions were kept at +4° C., light protected.
Percent hemolysis was calculated as follows: (OD540peptide/OD540H2O)×100%.

[2] = system: Acinetobacter baumannii DSM 30008
Outline: (§1)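 Peptide MICs were determined by NCCLS broth microdilution in cation-adjusted Mueller-Hinton II broth. Inoculum was about 10^6 CFU/mL, matched to 0.5 McFarland, with peptides in two-fold serial dilutions. The broth contained Polysorbate 80 at 0.002% final concentration.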

[3] = system: Klebsiella pneumoniae ATCC 13883
Outline: as §1

[4] = system: Escherichia coli ATCC 25922
Outline: as §1

[5] = Mueller-Hinton broth II, 0.002% P-80, 18-20 hours at 35° C.

Structure (SMILES)	Hemolysis at 100 μg/mL ([1]; red cells of human, 1 h, 100)	Acinetobacter baumannii DSM 30008 MIC ([2]; DSM 30008)	Klebsiella pneumoniae ATCC 13883 MIC ([3]; ATCC 13883)	Escherichia coli ATCC 25922 MIC ([4]; ATCC 25922)	Hemolysis at 100 μg/mL ([1]; 100 μg/mL, 20% hRBC (v/v), 1 h at 37° C.)	Acinetobacter baumannii DSM 30008 MIC [2, 5]	Klebsiella pneumoniae ATCC 13883 MIC [3, 5]	Escherichia coli ATCC 25922 MIC [4, 5]
CC(C)C[C@@H]1NC(=O)[C@@H]2CCCN2C(=O)[C@H]2CCCN2C(=O)[C@H](CO)NC(=O)[C@@H]2CC(=O)NCCCC[C@H](NC1=O)C(=O)N[C@@H](Cc1ccc(O)cc1)C(=O)N[C@@H](CCN)C(=O)N[C@@H](CCCN)C(=O)N[C@H](CCN)C(=O)N[C@@H](CCN)C(=O)N[C@@H](Cc1c[nH]c3ccccc13)C(=O)N[C@@H](CCN)C(=O)N[C@@H](C(C)(C)C)C(=O)N2 [Example 35, cyclo(-Leu-Lys-Tyr-Dab-Orn-^DDab-Dab-Trp-Dab-tBuGly-Asp-Ser-^DPro-Pro-)] (HELM PEPTIDE1{L.K.Y.[Dab].[Orn].[NCC[C@@H](N[*:1])C(=O)[*:2]].[Dab].W.[Dab].[CC(C)(C)[C@H](N[*:1])C(=O)[*:2]].D.S.[dP].P}$PEPTIDE1,PEPTIDE1,2:R3-11:R3|PEPTIDE1,PEPTIDE1,1:R1-14:R2$$$V2.0)	0%	1 µg/mL	2 µg/mL	0.5 µg/mL				
CC(C)C[C@@H]1NC(=O)[C@@H]2CCCN2C(=O)[C@H]2CCCN2C(=O)[C@H](CO)NC(=O)[C@@H]2CC(=O)NC[C@H](NC1=O)C(=O)N[C@@H](Cc1ccc(O)cc1)C(=O)N[C@@H](CCN)C(=O)N[C@@H](CCCN)C(=O)N[C@H](CCN)C(=O)N[C@@H](CCN)C(=O)N[C@@H](Cc1c[nH]c3ccccc13)C(=O)N[C@@H](CCN)C(=O)N[C@@H](C(C)(C)C)C(=O)N2 [Example 36, cyclo(-Leu-Dap-Tyr-Dab-Orn-^DDab-Dab-Trp-Dab-tBuGly-Asp-Ser-^DPro-Pro-)] (cyclo(L[Dap]Y[Dab][Orn][dDab][Dab]W[Dab][Tle]DS[dP]P); lactam 2-11)	4.5%	1.5 µg/mL	0.125 µg/mL	0.5 µg/mL				
CC(C)C[C@@H]1NC(=O)[C@@H]2CCCN2C(=O)[C@H]2CCCN2C(=O)[C@H](CO)NC(=O)[C@@H]2CC(=O)NCC[C@H](NC1=O)C(=O)N[C@@H](Cc1ccc(O)cc1)C(=O)N[C@@H](CCN)C(=O)N[C@@H](CCCN)C(=O)N[C@H](CCN)C(=O)N[C@@H](CCN)C(=O)N[C@@H](Cc1c[nH]c3ccccc13)C(=O)N[C@@H](CCN)C(=O)N[C@@H](C(C)(C)C)C(=O)N2 [Example 37, cyclo(-Leu-Dab-Tyr-Dab-Orn-^DDab-Dab-Trp-Dab-tBuGly-Asp-Ser-^DPro-Pro-)] (HELM PEPTIDE1{L.[Dab].Y.[Dab].[Orn].[NCC[C@@H](N[*:1])C(=O)[*:2]].[Dab].W.[Dab].[CC(C)(C)[C@H](N[*:1])C(=O)[*:2]].D.S.[dP].P}$PEPTIDE1,PEPTIDE1,2:R3-11:R3|PEPTIDE1,PEPTIDE1,1:R1-14:R2$$$V2.0)	2.5%	0.5 µg/mL	0.5 µg/mL	0.5 µg/mL				
CC(C)[C@@H]1NC(=O)[C@@H]2CCCN2C(=O)[C@H]2CCCN2C(=O)[C@H](CO)NC(=O)[C@H]2CSSC[C@@H](NC1=O)C(=O)N[C@@H](Cc1ccc(O)cc1)C(=O)N[C@@H](CCN)C(=O)N[C@@H](CN)C(=O)N[C@H](CCN)C(=O)N[C@@H](CCN)C(=O)N[C@@H](Cc1c[nH]c3ccccc13)C(=O)N[C@@H](CCN)C(=O)N[C@@H](C(C)(C)C)C(=O)N2 [Example 38, cyclo(-Val-^DCys-Tyr-Dab-Dap-^DDab-Dab-Trp-Dab-tBuGly-^DCys-Ser-^DPro-Pro-)] (cyclo(V[dC]Y[Dab][Dap][dDab][Dab]W[Dab][Tle][dC]S[dP]P); disulfide 2-11)					2%	2 µg/mL	2 µg/mL	4 µg/mL
CC(C)[C@@H]1NC(=O)[C@@H]2CCCN2C(=O)[C@H]2CCCN2C(=O)[C@H](CO)NC(=O)[C@@H]2CSSCC[C@H](NC1=O)C(=O)N[C@@H](Cc1ccc(O)cc1)C(=O)N[C@@H](CCN)C(=O)N[C@@H](CN)C(=O)N[C@H](CCN)C(=O)N[C@@H](CCN)C(=O)N[C@@H](Cc1c[nH]c3ccccc13)C(=O)N[C@@H](CCN)C(=O)N[C@@H](C(C)(C)C)C(=O)N2 [Example 39, cyclo(-Val-Hcy-Tyr-Dab-Dap-^DDab-Dab-Trp-Dab-tBuGly-Cys-Ser-^DPro-Pro-)] (cyclo(V[hCys]Y[Dab][Dap][dDab][Dab]W[Dab][Tle]CS[dP]P); disulfide 2-11)	2%	2 µg/mL	1 µg/mL	1 µg/mL				
CC(C)[C@@H]1NC(=O)[C@@H]2CCCN2C(=O)[C@H]2CCCN2C(=O)[C@H](CO)NC(=O)[C@@H]2CNC(=O)NC[C@H](NC1=O)C(=O)N[C@@H](Cc1ccc(O)cc1)C(=O)N[C@@H](CCN)C(=O)N[C@@H](CN)C(=O)N[C@H](CCN)C(=O)N[C@@H](CCN)C(=O)N[C@@H](Cc1c[nH]c3ccccc13)C(=O)N[C@@H](CCN)C(=O)N[C@@H](C(C)(C)C)C(=O)N2 [Example 40, cyclo(-Val-Dap-Tyr-Dab-Dap-^DDab-Dab-Trp-Dab-tBuGly-Dap-Ser-^DPro-Pro-)] (cyclo(V[Dap]Y[Dab][Dap][dDab][Dab]W[Dab][Tle][Dap]S[dP]P); linker 2-11 via CO)	2%	1 µg/mL	0.25 µg/mL	0.25 µg/mL				
CC(C)[C@@H]1NC(=O)[C@@H]2CCCN2C(=O)[C@H]2CCN2C(=O)[C@H]([C@@H](C)O)NC(=O)[C@H](CO)NC(=O)[C@H](C(C)(C)C)NC(=O)[C@H](CCN)NC(=O)[C@H](Cc2c[nH]c3ccccc23)NC(=O)[C@H](CCN)NC(=O)[C@@H](CCN)NC(=O)[C@H](CN)NC(=O)[C@H](CCN)NC(=O)[C@H](Cc2ccc(O)cc2)NC(=O)[C@H](CN)NC1=O [Example 41, cyclo(-Val-Dap-Tyr-Dab-Dap-^DDab-Dab-Trp-Dab-tBuGly-Ser-Thr-^DAzt-Pro-)] (cyclo([Dab][Dap][dDab][Dab]W[Dab][Tle]ST[dAze]PV[Dap]Y))	1%	1 µg/mL	0.25 µg/mL	0.5 µg/mL				
CC(C)C[C@@H]1NC(=O)[C@H]2CCCN2C(=O)[C@H](CO)NC(=O)[C@H](C)NC(=O)[C@H](C(C)(C)C)NC(=O)[C@H](CCN)NC(=O)[C@H](Cc2c[nH]c3ccccc23)NC(=O)[C@H](CCN)NC(=O)[C@@H](CCN)NC(=O)[C@H](CCCN)NC(=O)[C@H](CCN)NC(=O)[C@H](Cc2ccc(O)cc2)NC(=O)[C@H](CN)NC(=O)[C@H](Cc2ccccc2)NC1=O [Example 42, cyclo(-Phe-Dap-Tyr-Dab-Orn-^DDab-Dab-Trp-Dab-tBuGly-Ala-Ser-^DPro-Leu-)] (cyclo(AS[dP]LF[Dap]Y[Dab][Orn][dDab][Dab]W[Dab][Tle]))	1%	4 µg/mL	1 µg/mL	1 µg/mL				
C[C@@H]1NC(=O)[C@H](C(C)(C)C)NC(=O)[C@H](CCN)NC(=O)[C@H](Cc2c[nH]c3ccccc23)NC(=O)[C@H](CCN)NC(=O)[C@@H](CCN)NC(=O)[C@H](CCCN)NC(=O)[C@H](CCN)NC(=O)[C@H](Cc2ccc(O)cc2)NC(=O)[C@H](CN)NC(=O)[C@H](Cc2ccccc2)NC(=O)[C@H](Cc2ccccc2)NC(=O)[C@H]2CCCN2C(=O)[C@H](CO)NC1=O [Example 43, cyclo(-Phe-Dap-Tyr-Dab-Orn-^DDab-Dab-Trp-Dab-tBuGly-Ala-Ser-^DPro-Phe-)] (cyclo(AS[dP]FF[Dap]Y[Dab][Orn][dDab][Dab]W[Dab][Tle]))	1%	1 µg/mL	0.25 µg/mL	1 µg/mL				
C[C@@H]1NC(=O)[C@H](C(C)(C)C)NC(=O)[C@H](CCN)NC(=O)[C@H](Cc2c[nH]c3ccccc23)NC(=O)[C@H](CCN)NC(=O)[C@@H](CCN)NC(=O)[C@H](CCCN)NC(=O)[C@H](CCN)NC(=O)[C@H](Cc2ccc(O)cc2)NC(=O)[C@H](CN)NC(=O)[C@H](Cc2ccccc2)NC(=O)[C@H](Cc2ccc(O)cc2)NC(=O)[C@H]2CCCN2C(=O)[C@H](CO)NC1=O [Example 44, cyclo(-Phe-Dap-Tyr-Dab-Orn-^DDab-Dab-Trp-Dab-tBuGly-Ala-Ser-^DPro-Tyr-)] (cyclo(AS[dP]YF[Dap]Y[Dab][Orn][dDab][Dab]W[Dab][Tle]))	0%	1 µg/mL	0.25 µg/mL	0.5 µg/mL				
